# Measured values from US9480259B2, “Pyrazolopyrans having herbicidal and pharmaceutical properties” (BASF SE, priority 2012, dated 2016).
# Molecular target: Arabidopsis thaliana SHMT
# Assay: SHMT activity assay (ED50 SHMT), coupled with N5,N10-CH2-THF dehydrogenase, NADH at 340 nm
# Format: biochemical
# Settings: Arabidopsis thaliana SHMT enzyme assay; values given as upper bounds
# Description: Determination of the ED50 SHMT was carried out as described hereinunder.
# Purification of Arabidopsis thaliana SHMT
# The following buffers were used during the purification protocol:
# Buffer A (Lysis and Wash Buffer): • 20 mM Na-Phosphat (pH 7,4) • 500 mM NaCI • 40 mM Imidazole • 1.0 mM L-Serine • 0.5 mM Pyridoxal-5-phosphate • 0.5 mM DTT
# Buffer B (Elution Buffer): • 20 mM Na-Phosphat (pH 7,4) • 500 mM NaCl • 250 mM Imidazole • 1.0 mM L-Serine • 0.5 mM Pyridoxal-5-phosphate • 0.5 mM DTT
# All procedures were conducted at 4° C. or on ice. Pellets were suspended in Buffer A containing 1 mg/ml DNAse +Complete EDTA-free protease inhibitor tablet. Cells were lysed using sonication or a French Press device, using standard settings. Lysis was centrifuged at 40000×g for 25 minutes. The supernatant was filtered (0.22 μM) before loading onto a Ni-NTA column.
# A gravity flow column containing Ni-NTA resin was equilibrated with 10 CV Buffer A and loaded with filtered cell lysate. The column was then washed with 10 CV Buffer A. Elution was afforded using Buffer B and collected manually as mini-factions. EDTA was added after elution to a final concentration of 1 mM. Fractions were pooled on the basis of the correct band for SHMT visualised via SDS-PAGE and staining.
# SHMT Assay Buffer: • 50 mM KH2PO4 (pH 7,4) • 2.0 mM NAD+ • 7.5 mM DTT • 0.3 mM Tetrahydrofolic acid • 4% DMSO
# Reaction Start: 20 mM L-Serine
# The rate of N5,N10-CH2-THF formation catalyzed by SHMT was monitored at 340 nm by coupling with excess N5,N10-CH2-THF dehydrogenase, which converts NAD+to NADH. Reactions were initiated by adding 20 mM L-Serine. Inhibition of initial velocity was determined by adding various inhibitors of the SHMT reaction and monitored as described. Reactions were measured in a Bio Tek micro titer plate reader following the change in absorption with the formation of NADH for 30 mimnutes.
row,Structure (SMILES),EC50 [nM]
1,Cc1n[nH]c2c1C(c1cc(C#N)cc(N(C)C(=O)CCC#N)c1)(C1CCC1)C(C#N)=C(N)O2 (stereo not shown) [Compound 2.661],< 10
2,Cc1n[nH]c2c1C(c1cc(-c3nnn[nH]3)cc(N(C)C(=O)CCC#N)c1)(C1CCC1)C(C#N)=C(N)O2 (stereo not shown) [Compound 2.668],< 100
3,Cc1n[nH]c2c1C(c1cc(C#N)cc(C#N)c1)(C1CC(F)C1)C(C#N)=C(N)O2 (stereo not shown) [Compound 2.714],< 100
4,Cc1n[nH]c2c1C(c1cc(CCc3nnn[nH]3)cc(-c3nnn[nH]3)c1)(C(C)C)C(C#N)=C(N)O2 (stereo not shown) [Compound 2.716],< 10000
5,Cc1n[nH]c2c1C(c1cc(Cl)cc(SCC#N)c1)(C1CCC1)C(C#N)=C(N)O2 (stereo not shown) [Compound 2.665],< 10
6,Cc1n[nH]c2c1C(c1cc(Cl)cc(CCCC#N)c1)(C1CCC1)C(C#N)=C(N)O2 (stereo not shown) [Compound 2.670],< 10
7,Cc1n[nH]c2c1C(c1cc(C#N)cc(N(C)Cc3ccccc3)c1)(C1CCC1)C(C#N)=C(N)O2 (stereo not shown) [Compound 2.660],< 10
8,Cc1n[nH]c2c1C(c1cc(Cl)cc(CCCc3nnn[nH]3)c1)(C1CCC1)C(C#N)=C(N)O2 (stereo not shown) [Compound 2.677],< 10
9,Cc1n[nH]c2c1C(c1cc(C#N)cc(N(C)CC(=O)O)c1)(C1CCC1)C(C#N)=C(N)O2 (stereo not shown) [Compound 2.693],< 100
10,Cc1n[nH]c2c1C(c1cc(C#N)cc(C#N)c1)(C1CC(F)(F)C1)C(C#N)=C(N)O2 (stereo not shown) [Compound 2.707],< 1000

# Same assay, conditions: Table 2, Arabidopsis thaliana SHMT enzyme assay; values given as upper bounds
row,Structure (SMILES),EC50 [nM]
1,Cc1n[nH]c2c1C(c1cc(C#N)cc(C#N)c1)(C1(F)CC1)C(C#N)=C(N)O2 (stereo not shown) [Compound 2.383],< 10
2,Cc1n[nH]c2c1C(c1cc(Cl)cc(C(N)=O)c1)(C1CCC1)C(C#N)=C(N)O2 (stereo not shown) [Compound 2.284],< 10
3,N#CC1=C(N)Oc2[nH]ncc2C1(c1cc(Br)cc(C(F)(F)F)c1)C1CCC1 (stereo not shown) [Compound 2.259],< 10
4,Cc1n[nH]c2c1C(c1cc(Cl)cc(Oc3ccc(Cl)cc3)c1)(C1CCC1)C(C#N)=C(N)O2 (stereo not shown) [Compound 2.341],< 10
5,Cc1n[nH]c2c1C(c1cc(Cl)cc(Oc3cccc(Cl)c3)c1)(C1CC1)C(C#N)=C(N)O2 (racemic) [Compound 2.347],< 10
6,N#CC1=C(N)Oc2[nH]ncc2C1(c1cc(Br)cc(C#N)c1)C1(F)CC1 (stereo not shown) [Compound 2.380],< 10
7,Cc1n[nH]c2c1C(c1cc(Cl)cc(C#N)c1)(C1CC1)C(C#N)=C(N)O2 (stereo not shown) [Compound 2.359],< 10
8,Cc1n[nH]c2c1C(c1cc(C#N)cc(C(F)(F)F)c1)(C(C)C)C(C#N)=C(N)O2 (stereo not shown) [Compound 2.338],< 10
9,Cc1n[nH]c2c1C(c1cc(Cl)cc(-c3ccco3)c1)(C1CCC1)C(C#N)=C(N)O2 (stereo not shown) [Compound 2.262],< 10
10,Cc1n[nH]c2c1C(c1cccc(OC(F)(F)C(F)F)c1)(C1CCC1)C(C#N)=C(N)O2 (stereo not shown) [Compound 2.356],< 10
11,Cc1n[nH]c2c1C(c1cc(Cl)cc(-c3ccc(Cl)cc3)c1)(C1CCC1)C(C#N)=C(N)O2 (stereo not shown) [Compound 2.225],< 10
12,N#CC1=C(N)Oc2[nH]ncc2C1(c1cc(N2CCOCC2)cc(C(F)(F)F)c1)C1CCC1 (stereo not shown) [Compound 2.274],< 10
13,N#CC1=C(N)Oc2[nH]ncc2C1(c1cc(Cl)cc(-c2nccs2)c1)C1CCC1 (stereo not shown) [Compound 2.319],< 10
14,N#CC1=C(N)Oc2[nH]ncc2C1(c1cc(C#N)cc(C(F)(F)F)c1)C1CCC1 (stereo not shown) [Compound 2.321],< 10

# Same assay, conditions: Table 2; values given as upper bounds
row,Structure (SMILES),EC50 [nM]
1,Cc1n[nH]c2c1C(c1ccc(OCc3nnn[nH]3)c(Cl)c1)(C1CCC1)C(C#N)=C(N)O2 (stereo not shown) [Compound 2.638],< 10
2,Cc1n[nH]c2c1C(c1cc(Cl)cc(CC(=O)O)c1)(C1(F)CC1)C(C#N)=C(N)O2 (stereo not shown) [Compound 2.498],< 100
3,CCC1(c2ccc(NC(=O)C(C)(C)C)cc2)C(C#N)=C(N)Oc2[nH]nc(C)c21 (stereo not shown) [Compound 2.39.],< 10000
4,Cc1n[nH]c2c1C(c1cccc(Cl)c1)(C(F)(F)F)C(C#N)=C(N)O2 (stereo not shown) [Compound 2.87.],< 10000
5,CCc1n[nH]c2c1C(c1ccc(OC)c(Cl)c1)(C(C)C)C(C#N)=C(N)O2 (stereo not shown) [Compound 2.147.],< 1000
6,CCCC1(c2cc(C#N)cc(C#N)c2)C(C#N)=C(N)Oc2[nH]nc(OC)c21 (stereo not shown) [Compound 2.604],< 1000
7,CCC1(c2ccc(Br)c(Cl)c2)C(C#N)=C(N)Oc2[nH]nc(C)c21 (stereo not shown) [Compound 2.472],< 100
8,Cc1n[nH]c2c1C(c1cc(Cl)cc(Oc3cc(F)c(O)c(F)c3)c1)(C1CCC1)C(C#N)=C(N)O2 (stereo not shown) [Compound 2.596],< 10
9,CCC1(c2ccc(OS(=O)(=O)Cc3ccccc3)c(C)c2)C(C#N)=C(N)Oc2[nH]nc(C)c21 (stereo not shown) [Compound 2.55.],< 1000
10,CCC1(c2ccc(OCc3ccccc3)cc2)C(C#N)=C(N)Oc2[nH]nc(C)c21 (stereo not shown) [Compound 2.28.],< 1000
11,CCC1(c2cccc(C(F)(F)F)c2)C(C#N)=C(N)Oc2[nH]ncc21 (stereo not shown) [Compound 2.63.],< 10000
12,Cc1n[nH]c2c1C(c1ccc(OC(F)(F)F)cc1)(C(C)C)C(C#N)=C(N)O2 (racemic) [Compound 2.145.],< 1000
13,CCCC1(c2cc(C#N)cc(C#N)c2)C(C#N)=C(N)Oc2[nH]nc(C)c21 (stereo not shown) [Compound 2.535],< 10
14,CCC1(c2cccc(Cl)c2)C(C#N)=C(N)Oc2[nH]nc(C3CC3)c21 (stereo not shown) [Compound 2.117.],< 10000
15,CCc1n[nH]c2c1C(c1ccc(OC)c(Cl)c1)(C1CC1)C(C#N)=C(N)O2 (stereo not shown) [Compound 2.151.],< 1000
16,Cc1n[nH]c2c1C(c1ccc(CC(=O)O)c(C(F)(F)F)c1)(C1CCC1)C(C#N)=C(N)O2 (stereo not shown) [Compound 2.544],< 100
17,Cc1n[nH]c2c1C(c1ccc(Cl)cc1)(C(C)C)C(C#N)=C(N)O2 (stereo not shown) [Compound 2.143.],< 1000
18,Cc1n[nH]c2c1C(c1ccc(OC(F)(F)F)cc1)(C1CCC1)C(C#N)=C(N)O2 (stereo not shown) [Compound 2.183.],< 1000

row,Structure (SMILES),EC50 [nM]
1,Cc1n[nH]c2c1C(c1cc(C(F)(F)F)cc(C(F)(F)F)c1)(C1(F)COC1)C(C#N)=C(N)O2 (racemic) [Compound 2.501],< 10
2,CSc1ccc(C2(C(C)C)C(C#N)=C(N)Oc3[nH]nc(C)c32)cc1 (stereo not shown) [Compound 2.123.],< 100
3,Cc1n[nH]c2c1C(c1cc(C#N)cc(-c3cc(F)c(O)c(F)c3)c1)(C1CCC1)C(C#N)=C(N)O2 (stereo not shown) [Compound 2.484],< 10
4,COC(=O)CCc1cccc(-c2cc(C#N)cc(C3(C4CCC4)C(C#N)=C(N)Oc4[nH]nc(C)c43)c2)c1 (stereo not shown) [Compound 2.523],< 10
5,CCc1n[nH]c2c1C(CC)(c1cccc(C(F)(F)F)c1)C(C#N)=C(N)O2 (stereo not shown) [Compound 2.98.],< 1000
6,N#CC1=C(N)Oc2[nH]nc(C(F)F)c2C1(c1cccc(C(F)(F)F)c1)C1CCC1 (stereo not shown) [Compound 2.175.],< 1000
7,CCC1(c2cccc(C(F)(F)F)c2)C(C#N)=C(N)Oc2[nH]nc(CCC(F)F)c21 (stereo not shown) [Compound 2.106.],< 10000
8,CCc1n[nH]c2c1C(CC)(c1cc(Br)cc(C#N)c1)C(C#N)=C(N)O2 (stereo not shown) [Compound 2.576],< 100
9,CCC1(c2cc(Cl)cc(Oc3ccccc3)c2)C(C#N)=C(N)Oc2[nH]nc(C)c21 (stereo not shown) [Compound 2.113.],< 100
10,CCC1(c2cc(C#N)cc(C(F)(F)F)c2)C(C#N)=C(N)Oc2[nH]nc(C(C)C)c21 (stereo not shown) [Compound 2.581],< 100
11,Cc1n[nH]c2c1C(c1cc(Cl)cc(Oc3ccc(F)cc3)c1)(C1CC1)C(C#N)=C(N)O2 (stereo not shown) [Compound 2.189.],< 100
12,CCC1(c2cc(Cl)cc(C#N)c2)C(C#N)=C(N)Oc2[nH]nc(C(F)F)c21 (stereo not shown) [Compound 2.605],< 10
13,CCC1(c2ccc(C(F)(F)F)cc2)C(C#N)=C(N)Oc2[nH]nc(C)c21 (stereo not shown) [Compound 2.30.],< 10000
14,CCCC1(c2cc(C#N)cc(C(F)(F)F)c2)C(C#N)=C(N)Oc2[nH]nc(OC)c21 (stereo not shown) [Compound 2.600],< 1000
15,CCc1n[nH]c2c1C(c1cccc(C(F)(F)F)c1)(C1CCC1)C(C#N)=C(N)O2 (stereo not shown) [Compound 2.170.],< 100
16,Cc1n[nH]c2c1C(c1cc(Cl)cc(Br)c1)(C1CC1)C(C#N)=C(N)O2 (stereo not shown) [Compound 2.146.],< 100
17,Cc1n[nH]c2c1C(c1cc(Cl)cc(Cl)c1)(C1(F)COC1)C(C#N)=C(N)O2 (racemic) [Compound 2.478],< 100
18,COc1ccc(C2(C3CCC3)C(C#N)=C(N)Oc3[nH]nc(C)c32)cc1Br (stereo not shown) [Compound 2.208.],< 10

# Same assay, conditions: inhibition of initial velocity of Arabidopsis thaliana SHMT
row,Structure (SMILES),EC50 [nM]
1,Cc1n[nH]c2c1C(c1ccc(-c3ccco3)s1)(C1CCC1)C(C#N)=C(N)O2 (stereo not shown) [Compound 4.3],< 10
2,Cc1n[nH]c2c1C(c1cc(-c3cccc(C(F)(F)F)c3)cs1)(C1CCC1)C(C#N)=C(N)O2 (stereo not shown) [Compound 4.68],< 1000
3,Cc1n[nH]c2c1C(c1cc(-c3cccc(F)c3)cs1)(C1CC1)C(C#N)=C(N)O2 (stereo not shown) [Compound 4.60],< 100
4,Cc1n[nH]c2c1C(c1ccc3c(c1)OCCO3)(C1(F)CC1)C(C#N)=C(N)O2 (racemic) [Compound 4.51],< 100
